Laboratory results taken from US20250282768A1 (Janssen Pharmaceutica NV, priority 2022, published 2025).

What follows are molecules tested on p-IKKa levels in L363 (NIK translocated multiple myeloma) cells (assay: Assay 2: Effect of compounds on p-IKKa levels in L363 (NIK translocated multiple myeloma) cells). Conditions: Homo sapiens, L-363, 6 h, read-out: Assay 2 IC50 (nM), p-IKKa (Ser 176/180) in BAFF stimulated L363 cells with MG132, 6 h; average if tested more than once.
Type: cell-based
In short: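 L363 cells incubated overnight ± 250 ng/ml BAFF, then 6 h at 37 °C with compound (0.3% DMSO) ± 10 μM MG132. Lysates assayed for p-IKKa (Ser176/180) by AlphaLISA SureFire. IC50 from sigmoidal fit of % inhibition normalized to BAFF/MG132-stimulated and unstimulated controls.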

Row | SMILES | IC50
1 | C[C@H](Nc1nccc(-c2cccc(-c3cc([C@]4(O)CCN(C)C4=O)on3)n2)n1)c1ncc[nH]1 [Example 370, (R)-3-(3-(6-(2-(((S)-1-(1H-Imidazol-2-yl)ethyl)amino)pyrimidin-4-yl)pyridin-2-yl)isoxazol-5-yl)-3-hydroxy-1-methylpyrrolidin-2-one] | > 500 nM
2 | CC(Nc1nccc(-c2cccc(-c3cc([C@]4(O)CCN(C)C4=O)on3)n2)n1)c1ncco1 (stereo partly drawn) [Example 371, (3R)-3-Hydroxy-1-methyl-3-(3-(6-(2-((1-(oxazol-2-yl)ethyl)amino)pyrimidin-4-yl)pyridin-2-yl)isoxazol-5-yl)pyrrolidin-2-one] | 50 to 500 nM
3 | CC(Nc1nccc(-c2cccc(-c3cc([C@]4(O)CCN(C)C4=O)on3)n2)n1)c1cnco1 (stereo partly drawn) [Example 372, (3R)-3-Hydroxy-1-methyl-3-(3-(6-(2-((1-(oxazol-5-yl)ethyl)amino)pyrimidin-4-yl)pyridin-2-yl)isoxazol-5-yl)pyrrolidin-2-one] | 50 to 500 nM
4 | CC(Nc1nccc(-c2cccc(-c3cc([C@]4(O)CCN(C)C4=O)on3)n2)n1)c1cocn1 (stereo partly drawn) [Example 373, (3R)-3-Hydroxy-1-methyl-3-(3-(6-(2-((1-(oxazol-4-yl)ethyl)amino)pyrimidin-4-yl)pyridin-2-yl)isoxazol-5-yl)pyrrolidin-2-one] | 50 to 500 nM
5 | C[C@H](Nc1nccc(-c2cccc(-c3cc([C@]4(O)CCN(C)C4=O)on3)n2)n1)c1cccnc1 [Example 374, (R)-3-Hydroxy-1-methyl-3-(3-(6-(2-(((S)-1-(pyridin-3-yl)ethyl)amino)pyrimidin-4-yl)pyridin-2-yl)isoxazol-5-yl)pyrrolidin-2-one] | 50 to 500 nM
6 | C[C@@H](Nc1nccc(-c2cccc(-c3cc([C@]4(O)CCN(C)C4=O)on3)n2)n1)c1cccnc1 [Example 375, (R)-3-Hydroxy-1-methyl-3-(3-(6-(2-(((R)-1-(pyridin-3-yl)ethyl)amino)pyrimidin-4-yl)pyridin-2-yl)isoxazol-5-yl)pyrrolidin-2-one] | 50 to 500 nM
7 | C[C@H](Nc1nccc(-c2cccc(-c3cc([C@]4(O)CCN(C)C4=O)on3)n2)n1)c1ccccn1 [Example 376, (R)-3-Hydroxy-1-methyl-3-(3-(6-(2-(((S)-1-(pyridin-2-yl)ethyl)amino)pyrimidin-4-yl)pyridin-2-yl)isoxazol-5-yl)pyrrolidin-2-one] | 50 to 500 nM
8 | CC(Nc1nccc(-c2cccc(-c3cc([C@]4(O)CCN(C)C4=O)on3)n2)n1)c1ncccn1 (stereo partly drawn) [Example 377, (3R)-3-Hydroxy-1-methyl-3-(3-(6-(2-((1-(pyrimidin-2-yl)ethyl)amino)pyrimidin-4-yl)pyridin-2-yl)isoxazol-5-yl)pyrrolidin-2-one] | > 500 nM
9 | CC(Nc1nccc(-c2cccc(-c3cc([C@]4(O)CCN(C)C4=O)on3)n2)n1)c1cn(C)cn1 (stereo partly drawn) [Example 378, (3R)-3-Hydroxy-1-methyl-3-(3-(6-(2-((1-(1-methyl-1H-imidazol-4-yl)ethyl)amino)pyrimidin-4-yl)pyridin-2-yl)isoxazol-5-yl)pyrrolidin-2-one] | 50 to 500 nM
10 | Cc1cc(C(C)Nc2nccc(-c3cccc(-c4cc([C@]5(O)CCN(C)C5=O)on4)n3)n2)n[nH]1 (stereo partly drawn) [Example 379, (3R)-3-Hydroxy-1-methyl-3-(3-(6-(2-((1-(5-methyl-1H-pyrazol-3-yl)ethyl)amino)pyrimidin-4-yl)pyridin-2-yl)isoxazol-5-yl)pyrrolidin-2-one] | 50 to 500 nM
11 | Cc1cc([C@@H](C)Nc2nccc(-c3cccc(-c4cc([C@]5(O)CCN(C)C5=O)on4)n3)n2)no1 [Example 380, (R)-3-Hydroxy-1-methyl-3-(3-(6-(2-(((R)-1-(5-methylisoxazol-3-yl)ethyl)amino)pyrimidin-4-yl)pyridin-2-yl)isoxazol-5-yl)pyrrolidin-2-one] | 50 to 500 nM
12 | Cc1cnc(C(C)Nc2nccc(-c3cccc(-c4cc([C@]5(O)CCN(C)C5=O)on4)n3)n2)o1 (stereo partly drawn) [Example 381, (3R)-3-Hydroxy-1-methyl-3-(3-(6-(2-((1-(5-methyloxazol-2-yl)ethyl)amino)pyrimidin-4-yl)pyridin-2-yl)isoxazol-5-yl)pyrrolidin-2-one] | 50 to 500 nM
13 | Cc1cc(C(C)Nc2nccc(-c3cccc(-c4cc([C@]5(O)CCN(C)C5=O)on4)n3)n2)on1 (stereo partly drawn) [Example 382, (3R)-3-Hydroxy-1-methyl-3-(3-(6-(2-((1-(3-methylisoxazol-5-yl)ethyl)amino)pyrimidin-4-yl)pyridin-2-yl)isoxazol-5-yl)pyrrolidin-2-one] | 50 to 500 nM
14 | C[C@@H](Nc1nccc(-c2cccc(-c3cc([C@]4(O)CCN(C)C4=O)on3)n2)n1)c1cnnn1C [Example 383, (R)-3-Hydroxy-1-methyl-3-(3-(6-(2-(((R)-1-(1-methyl-1H-1,2,3-triazol-5-yl)ethyl)amino)pyrimidin-4-yl)pyridin-2-yl)isoxazol-5-yl)pyrrolidin-2-one] | 50 to 500 nM
15 | C[C@H](Nc1nccc(-c2cccc(-c3cc([C@]4(O)CCN(C)C4=O)on3)n2)n1)c1cnnn1C [Example 384, (R)-3-Hydroxy-1-methyl-3-(3-(6-(2-(((S)-1-(1-methyl-1H-1,2,3-triazol-5-yl)ethyl)amino)pyrimidin-4-yl)pyridin-2-yl)isoxazol-5-yl)pyrrolidin-2-one] | 50 to 500 nM
16 | Cc1nnc(C(C)Nc2nccc(-c3cccc(-c4cc([C@]5(O)CCN(C)C5=O)on4)n3)n2)o1 (stereo partly drawn) [Example 385, (3R)-3-Hydroxy-1-methyl-3-(3-(6-(2-((1-(5-methyl-1,3,4-oxadiazol-2-yl)ethyl)amino)pyrimidin-4-yl)pyridin-2-yl)isoxazol-5-yl)pyrrolidin-2-one] | 50 to 500 nM
17 | CN1CC[C@@](O)(c2cc(-c3cccc(-c4ccnc(N[C@H](CO)c5ccccc5)n4)n3)no2)C1=O [Example 386, (R)-3-Hydroxy-3-(3-(6-(2-(((S)-2-hydroxy-1-phenylethyl)amino)pyrimidin-4-yl)pyridin-2-yl)isoxazol-5-yl)-1-methylpyrrolidin-2-one] | 50 to 500 nM
18 | CN1CC[C@@](O)(c2cc(-c3cccc(-c4ccnc(N[C@@H](CO)c5ccccn5)n4)n3)no2)C1=O [Example 387, (R)-3-Hydroxy-3-(3-(6-(2-(((R)-2-hydroxy-1-(pyridin-2-yl)ethyl)amino)pyrimidin-4-yl)pyridin-2-yl)isoxazol-5-yl)-1-methylpyrrolidin-2-one] | > 500 nM
19 | CN1CC[C@@](O)(c2cc(-c3cccc(-c4ccnc(N[C@H](CO)c5ccccn5)n4)n3)no2)C1=O [Example 388, (R)-3-Hydroxy-3-(3-(6-(2-(((S)-2-hydroxy-1-(pyridin-2-yl)ethyl)amino)pyrimidin-4-yl)pyridin-2-yl)isoxazol-5-yl)-1-methylpyrrolidin-2-one] | 50 to 500 nM
20 | CCC(Nc1nccc(-c2cccc(-c3cc([C@]4(O)CCN(C)C4=O)on3)n2)n1)c1ccn(C)n1 (stereo partly drawn) [Example 389, (3R)-3-Hydroxy-1-methyl-3-(3-(6-(2-((1-(1-methyl-1H-pyrazol-3-yl)propyl)amino)pyrimidin-4-yl)pyridin-2-yl)isoxazol-5-yl)pyrrolidin-2-one] | 50 to 500 nM
21 | CN1CC[C@@](O)(c2cc(-c3cccc(-c4ccnc(NC(c5ccccn5)C5CC5)n4)n3)no2)C1=O (stereo partly drawn) [Example 390, (3R)-3-(3-(6-(2-((Cyclopropyl(pyridin-2-yl)methyl)amino)pyrimidin-4-yl)pyridin-2-yl)isoxazol-5-yl)-3-hydroxy-1-methylpyrrolidin-2-one] | > 500 nM
22 | CCC(Nc1nccc(-c2cccc(-c3cc([C@]4(O)CCN(C)C4=O)on3)n2)n1)c1ccn(CC)n1 (stereo partly drawn) [Example 391, (3R)-3-(3-(6-(2-((1-(1-Ethyl-1H-pyrazol-3-yl)propyl)amino)pyrimidin-4-yl)pyridin-2-yl)isoxazol-5-yl)-3-hydroxy-1-methylpyrrolidin-2-one] | > 500 nM
23 | COc1cn(C)nc1C(C)Nc1nccc(-c2cccc(-c3cc([C@]4(O)CCN(C)C4=O)on3)n2)n1 (stereo partly drawn) [Example 392, (3R)-3-Hydroxy-3-(3-(6-(2-((1-(4-methoxy-1-methyl-1H-pyrazol-3-yl)ethyl)amino)pyrimidin-4-yl)pyridin-2-yl)isoxazol-5-yl)-1-methylpyrrolidin-2-one] | > 500 nM
24 | C[C@@H](Nc1nccc(-c2cccc(-c3cc([C@]4(O)CCN(C)C4=O)on3)n2)n1)c1cn2ccccc2n1 [Example 393, (R)-3-Hydroxy-3-(3-(6-(2-(((R)-1-(imidazo[1,2-a]pyridin-2-yl)ethyl)amino)pyrimidin-4-yl)pyridin-2-yl)isoxazol-5-yl)-1-methylpyrrolidin-2-one] | 50 to 500 nM
25 | C[C@H](Nc1nccc(-c2cccc(-c3cc([C@]4(O)CCN(C)C4=O)on3)n2)n1)c1cn2ccccc2n1 [Example 394, (R)-3-Hydroxy-3-(3-(6-(2-(((S)-1-(imidazo[1,2-a]pyridin-2-yl)ethyl)amino)pyrimidin-4-yl)pyridin-2-yl)isoxazol-5-yl)-1-methylpyrrolidin-2-one] | > 500 nM
26 | CC(Nc1nccc(-c2cccc(-c3cc([C@]4(O)CCN(C)C4=O)on3)n2)n1)c1nnc2ncccn12 (stereo partly drawn) [Example 395, (3R)-3-(3-(6-(2-((1-([1,2,4]Triazolo[4,3-a]pyrimidin-3-yl)ethyl)amino)pyrimidin-4-yl)pyridin-2-yl)isoxazol-5-yl)-3-hydroxy-1-methylpyrrolidin-2-one] | 50 to 500 nM
27 | CN(C)C[C@H](Nc1nccc(-c2cccc(-c3cc([C@]4(O)CCN(C)C4=O)on3)n2)n1)c1ccccc1 [Example 396, (R)-3-(3-(6-(2-(((R)-2-(Dimethylamino)-1-phenylethyl)amino)pyrimidin-4-yl)pyridin-2-yl)isoxazol-5-yl)-3-hydroxy-1-methylpyrrolidin-2-one] | > 500 nM
28 | CN(C)C[C@@H](Nc1nccc(-c2cccc(-c3cc([C@]4(O)CCN(C)C4=O)on3)n2)n1)c1ccccc1 [Example 397, (R)-3-(3-(6-(2-(((S)-2-(Dimethylamino)-1-phenylethyl)amino)pyrimidin-4-yl)pyridin-2-yl)isoxazol-5-yl)-3-hydroxy-1-methylpyrrolidin-2-one] | > 500 nM
